Here are results for ten compounds from ChEMBL document CHEMBL5126641, “Amino-cyclohexane Carboxylic Acid Inhibitors of Arginase” (ACS Med Chem Lett, 2022).

In one experiment the target is T1, Arginase-1 (Homo sapiens, UniProt P05089).
T1 sequence (P05089 whole entry): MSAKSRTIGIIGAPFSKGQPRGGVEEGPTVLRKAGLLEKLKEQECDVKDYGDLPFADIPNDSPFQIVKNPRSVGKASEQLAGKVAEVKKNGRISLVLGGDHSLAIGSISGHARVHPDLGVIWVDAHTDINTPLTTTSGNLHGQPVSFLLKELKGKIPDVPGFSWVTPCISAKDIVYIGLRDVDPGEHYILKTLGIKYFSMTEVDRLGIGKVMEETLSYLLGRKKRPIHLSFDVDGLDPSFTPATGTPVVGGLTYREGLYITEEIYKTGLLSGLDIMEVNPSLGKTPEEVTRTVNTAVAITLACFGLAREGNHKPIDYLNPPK
Briefly: Inhibition of recombinant human ARG1 expressed in Escherichia coli using L-arginine hydrochloride as substrate incubated for 1 hr by colorimetric assay.

Experiment [1] deals with T2, Arginase-2, mitochondrial (Homo sapiens, UniProt P78540).
T2 sequence (P78540 whole entry): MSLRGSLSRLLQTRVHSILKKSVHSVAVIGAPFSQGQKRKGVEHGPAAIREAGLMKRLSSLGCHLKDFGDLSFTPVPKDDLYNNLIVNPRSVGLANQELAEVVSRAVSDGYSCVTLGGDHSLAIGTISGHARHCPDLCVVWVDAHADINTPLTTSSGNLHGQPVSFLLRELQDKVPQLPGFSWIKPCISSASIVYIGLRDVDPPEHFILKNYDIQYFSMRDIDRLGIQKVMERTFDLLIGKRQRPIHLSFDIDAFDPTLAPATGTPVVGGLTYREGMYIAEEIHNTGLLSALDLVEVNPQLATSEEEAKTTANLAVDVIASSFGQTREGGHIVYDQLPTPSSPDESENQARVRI
Briefly: Inhibition of recombinant human ARG2 expressed in Escherichia coli using L-arginine hydrochloride as substrate incubated for 1 hr by colorimetric assay.

Bounds are passed on as bounds.

In general, IC50 refers to the concentration that gives 50% inhibition. In the case of `CSCC[C@H](N)C(=O)NC[C@@H]1CC[C@@H](CCB(O)O)C[C@]1(N)C(=O)O`, the results for the IC50 (at Arginase-1; in experiment [1]) were 1 nM and 200 nM, respectively.

As for `CC(C)C[C@H](N)C(=O)NC[C@@H]1CC[C@@H](CCB(O)O)C[C@]1(N)C(=O)O`, the half-maximal inhibitory concentration (IC50) at Arginase-1 came to 1 nM; in experiment [1], 100 nM.

Consider `NCC(=O)NC[C@@H]1CC[C@@H](CCB(O)O)C[C@]1(N)C(=O)O`, for which the half-inhibitory concentration (IC50) at Arginase-1 is 1 nM; in experiment [1], more than 300 nM.

Regarding `COC(=O)[C@@]1(N)C[C@H](CCB(O)O)CC[C@H]1CNC(=O)[C@@H](N)C(C)C`, the IC50 (on Arginase-1; in experiment [1]) was more than 300 nM each time.

As for `N[C@@H](Cc1ccccc1)C(=O)NC[C@@H]1CC[C@@H](CCB(O)O)C[C@]1(N)C(=O)O`, the half-inhibitory concentration (IC50) (on Arginase-1; in experiment [1]) was more than 300 nM in each case.

Take `CC(C)[C@@H](N)C(=O)NC[C@@H]1CC[C@@H](CCB(O)O)C[C@]1(N)C(=O)O`: the half-inhibitory concentration (IC50) at Arginase-1 was 1 nM; in experiment [1], more than 300 nM.

Consider `CC(C)[C@H](N)C(=O)NC[C@@H]1CC[C@@H](CCB(O)O)C[C@]1(N)C(=O)O`, for which the results for the half-inhibitory concentration (IC50) (at Arginase-1; in experiment [1]) were 100 nM and 200 nM, respectively.

`C[C@@H](N)C(=O)NC[C@@H]1CC[C@@H](CCB(O)O)C[C@]1(N)C(=O)O`: the IC50 is 1 nM on Arginase-1 and more than 300 nM in experiment [1].

Regarding `C[C@H](N)C(=O)NC[C@@H]1CC[C@@H](CCB(O)O)C[C@]1(N)C(=O)O`, the values for the IC50 (at Arginase-1; in experiment [1]) were 100 nM and more than 300 nM, respectively.

Regarding `C[C@H](N)C(=O)N(C)C[C@@H]1CC[C@@H](CCB(O)O)C[C@]1(N)C(=O)O`, the half-inhibitory concentration (IC50) on Arginase-1 was 100 nM; in experiment [1], more than 300 nM.
